Test results reported in patent publication US9975878B2, “Substituted triazine BMI-1 inhibitors” (PTC Therapeutics, Inc., priority 2013, dated 2018).

How the values were obtained:
[1] = system: Bmi-1 protein; assay: Sandwich ELISA Assay: Bmi-1 protein level in HT-1080 cells treated with test compounds; type: cell-based
Procedure, shortened: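 HT-1080 cells exposed to compounds (final DMSO 0.5%) for 40-48 h at 37° C, 5% CO2, then lysed. Bmi-1 quantified by sandwich ELISA (mouse anti-Bmi-1 capture, rabbit anti-Bmi-1 detection, HRP anti-rabbit, TMB), read at OD450 with OD570 reference, against recombinant GST-Bmi-1 standard curve (0-8000 pg/mL).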

EC50 [1] [nM]	melting point [°C]	SMILES
100 to 3000	178 to 180	Nc1nc(Nc2ccc(C(F)(F)F)nc2)nc(-n2c(CF)nc3ccccc32)n1 [Cpd 111, 6-[2-(fluoromethyl)-1H-benzimidazol-1-yl]-N-[6-(trifluoromethyl)pyridin-3-yl]-1,3,5-triazine-2,4-diamine]
1 to 10	–	CCc1nc2c(F)cccc2n1-c1nc(N)nc(Nc2ccc(Br)cc2)n1 [Cpd 216, N-(4-bromophenyl)-6-(2-ethyl-4-fluoro-1H-benzimidazol-1-yl)-1,3,5-triazine-2,4-diamine]
1 to 10	–	Cc1ccc(Nc2nncc(-n3c(C)nc4ccccc43)n2)cc1 [Cpd 217, 5-(2-methyl-1H-benzimidazol-1-yl)-N-(4-methylphenyl)-1,2,4-triazin-3-amine]
1 to 10	–	CCc1nc2ccccc2n1-c1cnnc(Nc2ccc(C)cc2)n1 [Cpd 218, 5-(2-ethyl-1H-benzimidazol-1-yl)-N-(4-methylphenyl)-1,2,4-triazin-3-amine]
10 to 100	–	Cc1nc2c(F)cccc2n1-c1nc(N)nc(Nc2ccc(Br)cc2)n1 [Cpd 219, N-(4-bromophenyl)-6-(4-fluoro-2-methyl-1H-benzimidazol-1-yl)-1,3,5-triazine-2,4-diamine]
10 to 100	–	Nc1nc(Nc2ccc(Br)cc2)nc(-n2c(C3CC3)nc3c(F)cccc32)n1 [Cpd 220, N-(4-bromophenyl)-6-(2-cyclopropyl-4-fluoro-1H-benzimidazol-1-yl)-1,3,5-triazine-2,4-diamine]
10 to 100	–	CCc1nc2cc(F)ccc2n1-c1nc(N)nc(Nc2ccc(Br)cc2)n1 [Cpd 221, N-(4-bromophenyl)-6-(2-ethyl-5-fluoro-1H-benzimidazol-1-yl)-1,3,5-triazine-2,4-diamine]
10 to 100	–	Nc1nc(Nc2ccc(Br)cc2)nc(-n2c(C3CC3)nc3cc(F)ccc32)n1 [Cpd 222, N-(4-bromophenyl)-6-(2-cyclopropyl-5-fluoro-1H-benzimidazol-1-yl)-1,3,5-triazine-2,4-diamine]
10 to 100	–	CCc1nc2ccc(F)cc2n1-c1nc(N)nc(Nc2ccc(Br)cc2)n1 [Cpd 223, N-(4-bromophenyl)-6-(2-ethyl-6-fluoro-1H-benzimidazol-1-yl)-1,3,5-triazine-2,4-diamine]
1 to 10	–	Nc1nc(Nc2ccc(Br)cc2)nc(-n2c(C3CC3)nc3ccccc32)n1 [Cpd 224, N-(4-bromophenyl)-6-(2-cyclopropyl-1H-benzimidazol-1-yl)-1,3,5-triazine-2,4-diamine]
100 to 3000	–	Nc1nc(Nc2ccc(OC(F)(F)F)cc2)nc(-n2c(C3CC3)nc3ccccc32)n1 [Cpd 225, 6-(2-cyclopropyl-1H-benzimidazol-1-yl)-N-[4-(trifluoromethoxy)phenyl]-1,3,5-triazine-2,4-diamine]
10 to 100	–	CSc1ccc(Nc2nc(N)nc(-n3c(C)nc4ccc(F)cc43)n2)cc1 [Cpd 226, 6-(6-fluoro-2-methyl-1H-benzimidazol-1-yl)-N-[4-(methylsulfanyl)phenyl]-1,3,5-triazine-2,4-diamine]
1 to 10	–	CCc1nc2c(F)cccc2n1-c1nc(N)nc(Nc2ccc(SC)cc2)n1 [Cpd 227, 6-(2-ethyl-4-fluoro-1H-benzimidazol-1-yl)-N-[4-(methylsulfanyl)phenyl]-1,3,5-triazine-2,4-diamine]

The remaining lines, values behind:

SMILES	EC50 [1] [nM]	melting point [°C]
Nc1nc(Nc2ccc(OC(F)F)cc2)nc(-n2c(C3CC3)nc3c(F)cc(F)cc32)n1 [Cpd 89, 6-(2-cyclopropyl-4,6-difluoro-1H-benzimidazol-1-yl)-N-[4-(difluoromethoxy)phenyl]-1,3,5-triazine-2,4-diamine]	10 to 100	181 to 183
Nc1nc(Nc2ccc(OC(F)F)c(F)c2)nc(-n2c(C3CC3)nc3c(F)cc(F)cc32)n1 [Cpd 90, 6-(2-cyclopropyl-4,6-difluoro-1H-benzimidazol-1-yl)-N-[4-(difluoromethoxy)-3-fluorophenyl]-1,3,5-triazine-2,4-diamine]	10 to 100	196 to 198
Nc1nc(Nc2ccc(OC(F)F)nc2)nc(-n2c(C3CC3)nc3c(F)cc(F)cc32)n1 [Cpd 91, 6-(2-cyclopropyl-4,6-difluoro-1H-benzimidazol-1-yl)-N-[6-(difluoromethoxy)pyridin-3-yl]-1,3,5-triazine-2,4-diamine]	10 to 100	128 to 130
Nc1nc(Nc2ccc(OC(F)(F)F)cc2)nc(-n2c(C3CC3)nc3c(F)cc(F)cc32)n1 [Cpd 92, 6-(2-cyclopropyl-4,6-difluoro-1H-benzimidazol-1-yl)-N-[4-(trifluoromethoxy)phenyl]-1,3,5-triazine-2,4-diamine]	100 to 3000	213 to 215
Nc1nc(Nc2ccc(C(F)(F)F)cc2)nc(-n2c(C(F)F)nc3ccccc32)n1 [Cpd 102, 6-[2-(difluoromethyl)-1H-benzimidazol-1-yl]-N-[4-(trifluoromethyl)phenyl]-1,3,5-triazine-2,4-diamine]	10 to 100	197 to 199
Nc1nc(Nc2ccc(OC(F)F)cc2)nc(-n2c(C(F)F)nc3ccccc32)n1 [Cpd 103, N-[4-(difluoromethoxy)phenyl]-6-[2-(difluoromethyl)-1H-benzimidazol-1-yl]-1,3,5-triazine-2,4-diamine]	10 to 100	197 to 199
Nc1nc(Nc2ccc(OC(F)F)c(F)c2)nc(-n2c(C(F)F)nc3ccccc32)n1 [Cpd 104, N-[4-(difluoromethoxy)-3-fluorophenyl]-6-[2-(difluoromethyl)-1H-benzimidazol-1-yl]-1,3,5-triazine-2,4-diamine]	10 to 100	201 to 203
Nc1nc(Nc2ccc(OC(F)(F)F)cc2)nc(-n2c(C(F)F)nc3ccccc32)n1 [Cpd 106, 6-[2-(difluoromethyl)-1H-benzimidazol-1-yl]-N-[4-(trifluoromethoxy)phenyl]-1,3,5-triazine-2,4-diamine]	10 to 100	138 to 139
Nc1nc(Nc2ccc(OC(F)F)cc2)nc(-n2c(CF)nc3ccccc32)n1 [Cpd 108, N-[4-(difluoromethoxy)phenyl]-6-[2-(fluoromethyl)-1H-benzimidazol-1-yl]-1,3,5-triazine-2,4-diamine]	10 to 100	166 to 168
Nc1nc(Nc2ccc(OC(F)F)c(F)c2)nc(-n2c(CF)nc3ccccc32)n1 [Cpd 109, N-[4-(difluoromethoxy)-3-fluorophenyl]-6-[2-(fluoromethyl)-1H-benzimidazol-1-yl]-1,3,5-triazine-2,4-diamine]	10 to 100	166 to 168
